Data published in patent US6403586B1, “Pyridazine derivatives and drugs containing the same as the active ingredient” (Kowa Co., Ltd., priority 1998, dated 2002).

Columns and labels:
[1] = tested on: Interleukin-1β (IL-1β) Production in HL-60 cells; assay: Inhibitory activity against interleukin-1β production (Test 1); assay type: cell-based; conditions: Homo sapiens, 72 h, lipopolysaccharide 10 μg/ml, culturing for 3 days, compared with control without test sample
Experimental: (Inhibitory activity against interleukin-1β production)
HL-60 cells were cultured for 4 days until confluence on RPMI 1640 medium with 10% fetal bovine serum (FBS) added thereto. The medium was centrifuged. The supernatant was discarded, and the cells were then suspended at 1×10^6 cells/me on RPMI 1640 medium with 3% FBS, and lipopolysaccharide was added to give a final concentration of 10 μg/ml. The culture was inoculated at 1 ml/well to a 24-well plate. A test compound was added at 1 μl/well, followed by culturing for 3 days. Three days later, the amount of interleukin-1β in each […] was determined by a comparison in yield with a control to which no test sample was added.

Row | SMILES | melting point | IC50 [1]
1 | CNC(=O)c1cc(-c2ccc(OC)cc2)nn(CC2CC2)c1=O [Example 61, 2-Cyclopropylmethyl-6-(4-methoxyphenyl)-4-methylcarbamoyl-2H-pyridazin-3-one] | 136.6 to 137.5 °C | 0.038 µM
2 | COc1ccc(-c2cc(NC=O)c(=O)n(CC=Cc3ccc(Cl)cc3)n2)cc1 [Example 112, 2-(4-chlorocinnamyl)-4-formylamino-6-(4-methoxyphenyl)-2H-pyridazin-3-one] | 213 to 213.8 °C | 0.387 µM
3 | COc1ccc(-c2cc(=O)n(CCO)nc2-c2ccc(OC)cc2)cc1 [Comp. Comp'd 2, reference compound] |  | 46 µM
4 | CCOC(=O)Nc1cc(-c2ccc(OC)cc2)nn(CC=Cc2ccc(Cl)cc2)c1=O [Example 87, 2-(4-Chlorocinnamyl)-4-ethoxycarbonylamino-6-(4-methoxyphenyl)-2H-pyridazin-3-one] | 171.2 to 172.1 °C | 0.05 µM
5 | CNC(=O)c1cc(-c2ccc(OC)cc2)nn(CC(C)C)c1=O [Example 43, 2-Isobutyl-6-(4-methoxyphenyl)-4-methylcarbamoyl-2H-pyridazin-3-one] | 124.9 to 125.2 °C | 0.357 µM
6 | CNC(=O)c1cc(-c2ccc(OC)c(F)c2)nn(CC2CC2)c1=O [Example 63, 2-Cyclopropylmethyl-6-(3-fluoro-4-methoxyphenyl)-4-methylcarbamoyl-2H-pyridazin-3-one] |  | 0.31 µM
7 | COc1ccc(-c2cc(=O)n(CCCl)nc2-c2ccc(OC)cc2)cc1 [Comp. Comp'd 1, reference compound] |  | 29 µM
8 | COc1ccc(-c2cc(=O)[nH]nc2-c2ccc(OC)cc2)cc1 [Comp. Comp'd 4, reference compound] |  | 31.6 µM
9 | CCNC(=O)c1cc(-c2ccc(OC)cc2)nn(CC2CC2)c1=O [Example 66, 2-Cyclopropylmethyl-4-ethylcarbamoyl-6-(4-methoxyphenyl)-2H-pyridazin-3-one] | 136.3 to 136.9 °C | 0.11 µM
10 | COc1ccc(-c2cc(N)c(=O)n(CC=Cc3ccc(Cl)cc3)n2)cc1 [Example 111, 4-amino-2-(4-chlorocinnamyl)-6-(4-methoxyphenyl)-2H-pyridazin-3-one] | 142.7 to 143.2 °C | 0.53 µM
11 | CNC(=O)C1CC(c2ccc(OC)cc2)=NN(CC(C)C)C1=O (stereo not drawn) [Example 128, 4,5-dihydro-2-isobutyl-6-(4-methoxyphenyl)-4-methylcarbamoyl-2H-pyridazin-3-one] | 124.2 to 125 °C | 0.4 µM
